Measurements published in article PMC10920834, “Synthesis, anticancer activity, and molecular docking of half-sandwich iron(II) cyclopentadienyl complexes with maleimide and phosphine or phosphite ligands” (Scientific Reports, 2024).

Tests used:
Format in all cases: cell-based, human
HL-60 cells = assay: Cell viability resazurin assay, HL-60 cells; settings: for viability of HL-60 cells relative to control: ± SD
Description: (§1) The A549 (human non-small cell lung cancer) cell line was obtained from the American Type Culture Collection (ATCC) and cultured in Dulbecco's Modified Eagle Medium (DMEM) with 10% fetal bovine serum (FBS), 2 mM L-Glutamine, 25 mM HEPES and penicillin/streptomycin solution (100 U/ml and 100 µg/ml, respectively). The HL-60 (human promyelocytic leukemia) cell line was also obtained from the American Type Culture Collection (ATCC) and cultured in Iscove’s Modified Dulbecco's Medium (IMDM) with 15% fetal bovine serum (FBS), 2 mM L-Glutamine, 25 mM HEPES and penicillin/streptomycin solution (100 U/ml and 100 µg/ml, respectively). Both cell lines were cultured in flasks at 37 °C in 5% CO2 and sub-cultured every 2–3 days to maintain exponential growth.
(§2) Firstly, resazurin salt powder was dissolved in sterile 1 × PBS. Cells were then seeded on the 96-well plates in the count of 1 × 10^4 in the case of HL-60 cells and of 5 × 10^4 for PBM cells and of 5 × 10^3 for A549 cells per well. A549 cells were seeded 24 h prior to treatment with the complexes to allow cell adherence to 96-well plate. Iron(II) complexes were added to wells to obtain final concentrations of 0.5, 1, 2.5, 5, 10, 25, 50, 100 and 250 μM. Subsequently, plates were incubated at 37 °C in 5% CO2 for 2 h and 24 h. After that 10 μl of resazurin salt was added to each well and plates again were incubated in 37 °C in 5% CO2 for 2 h. Finally, fluorescence was measured with microplate reader Synergy HT (Bio-Tek Instruments, USA) using an excitation wavelength of 530/25 and an emission wavelength of 590/35 nm. The effects of iron(II) complexes were calculated as the percentage of control fluorescence. IC50 (half maximal inhibitory concentration) values were calculated using a website algorithm (https://www.aatbio.com/tools/ic50-calculator). All assays were performed in octuplicate.

A549 cells = assay: Cell viability resazurin assay, A549 cells; settings: for viability of A549 cells relative to control: ± SD
Description: as §1, §2

PBM cells = assay: Cell viability resazurin assay, PBM cells; settings: for viability of PBM cells relative to control: ± SD
Description: Peripheral blood mononuclear (PBM) cells were isolated from a leukocyte-buffy coat collected from the blood of healthy, non-smoking donors at the Blood Bank in Lodz, Poland. The study protocol received approval from the Committee for Research on Human Subjects of the University of Lodz (17/KBBN-UŁ/III/2019). The initial step of isolation process involved mixing buffy coats with PBS in a 1:1 ratio. Subsequently, the mixture was centrifuged using a density gradient of Lymphosep (Cytogen, Zgierz, Poland) at 2200 RPM for 20 min, employing the lowest values for acceleration and deceleration. PBM cells were collected and washed three times by centrifugation with 1 × PBS. Following isolation, the cells were suspended in RPMI 1640 medium.
as §2

Structure (SMILES): O=C1C=CC(=O)[N-]1.[C-]#[O+].[Fe+2].c1cc[cH-]c1.c1ccc(P(c2ccccc2)c2ccccc2)cc1 [2a, CpFe(CO)(PPh3)(η^1-N-maleimidato)]
- viability of HL-60 cells relative to control (HL-60 cells; 2 h incubation, 0.5 µM): 104.08 ± 2.11%
- viability of HL-60 cells relative to control (HL-60 cells; 2 h incubation, 1 µM): 103.34 ± 3.15%
- viability of HL-60 cells relative to control (HL-60 cells; 2 h incubation, 2.5 µM): 103.43 ± 2.81%
- viability of HL-60 cells relative to control (HL-60 cells; 2 h incubation, 5 µM): 108.69 ± 1.98%
- viability of HL-60 cells relative to control (HL-60 cells; 2 h incubation, 10 µM): 115.82 ± 2.26%
- viability of HL-60 cells relative to control (HL-60 cells; 2 h incubation, 25 µM): 120.78 ± 3.7%
- viability of HL-60 cells relative to control (HL-60 cells; 2 h incubation, 50 µM): 118.68 ± 5.5%
- viability of HL-60 cells relative to control (HL-60 cells; 2 h incubation, 100 µM): 116.98 ± 3.65%
- viability of HL-60 cells relative to control (HL-60 cells; 2 h incubation, 250 µM): 113.31 ± 3.08%
- IC50 (HL-60 cells; 24 h incubation): 14.8 µM
- viability of HL-60 cells relative to control (HL-60 cells; 24 h incubation, 0.5 µM): 103.09 ± 2.54%
- viability of HL-60 cells relative to control (HL-60 cells; 24 h incubation, 1 µM): 104.21 ± 1.11%
- viability of HL-60 cells relative to control (HL-60 cells; 24 h incubation, 2.5 µM): 100.69 ± 4.9%
- viability of HL-60 cells relative to control (HL-60 cells; 24 h incubation, 5 µM): 79.99 ± 2.5%
- viability of HL-60 cells relative to control (HL-60 cells; 24 h incubation, 10 µM): 52.57 ± 0.94%
- viability of HL-60 cells relative to control (HL-60 cells; 24 h incubation, 25 µM): 15.3 ± 1.21%
- viability of HL-60 cells relative to control (HL-60 cells; 24 h incubation, 50 µM): 10.1 ± 0.23%
- viability of HL-60 cells relative to control (HL-60 cells; 24 h incubation, 100 µM): 10.31 ± 0.23%
- viability of HL-60 cells relative to control (HL-60 cells; 24 h incubation, 250 µM): 8.4 ± 0.12%
- viability of A549 cells relative to control (A549 cells; 2 h incubation, 0.5 µM): 84.75 ± 11.62%
- viability of A549 cells relative to control (A549 cells; 2 h incubation, 1 µM): 71.98 ± 10.47%
- viability of A549 cells relative to control (A549 cells; 2 h incubation, 2.5 µM): 67.99 ± 8.45%
- viability of A549 cells relative to control (A549 cells; 2 h incubation, 5 µM): 63.83 ± 8.57%
- viability of A549 cells relative to control (A549 cells; 2 h incubation, 10 µM): 64.49 ± 7.71%
- viability of A549 cells relative to control (A549 cells; 2 h incubation, 25 µM): 64.05 ± 10.66%
- viability of A549 cells relative to control (A549 cells; 2 h incubation, 50 µM): 71.32 ± 8.08%
- viability of A549 cells relative to control (A549 cells; 2 h incubation, 100 µM): 68.25 ± 7.97%
- viability of A549 cells relative to control (A549 cells; 2 h incubation, 250 µM): 57.40 ± 11.79%
- IC50 (A549 cells; 24 h incubation): > 250 µM
- cytotoxicity against A549 cells, in words (A549 cells; 24 h incubation): did not show cytotoxicity
- viability of A549 cells relative to control (A549 cells; 24 h incubation, 0.5 µM): 73.24 ± 14.30%
- viability of A549 cells relative to control (A549 cells; 24 h incubation, 1 µM): 63.60 ± 12.84%
- viability of A549 cells relative to control (A549 cells; 24 h incubation, 2.5 µM): 68.69 ± 13.05%
- viability of A549 cells relative to control (A549 cells; 24 h incubation, 5 µM): 65.32 ± 9.49%
- viability of A549 cells relative to control (A549 cells; 24 h incubation, 10 µM): 114.65 ± 23.41%
- viability of A549 cells relative to control (A549 cells; 24 h incubation, 25 µM): 117.99 ± 19.59%
- viability of A549 cells relative to control (A549 cells; 24 h incubation, 50 µM): 105.46 ± 17.32%
- viability of A549 cells relative to control (A549 cells; 24 h incubation, 100 µM): 120.77 ± 9.93%
- viability of A549 cells relative to control (A549 cells; 24 h incubation, 250 µM): 90.11 ± 9.87%
- A549 cell viability, increase with increasing concentrations to (A549 cells; 24 h incubation, concentration not given): 120%
- viability of PBM cells relative to control (PBM cells; 2 h incubation, 0.5 µM): 98.55 ± 3.27%
- viability of PBM cells relative to control (PBM cells; 2 h incubation, 1 µM): 98.65 ± 4.06%
- viability of PBM cells relative to control (PBM cells; 2 h incubation, 2.5 µM): 98.07 ± 3.18%
- viability of PBM cells relative to control (PBM cells; 2 h incubation, 5 µM): 98.94 ± 2.53%
- viability of PBM cells relative to control (PBM cells; 2 h incubation, 10 µM): 101.13 ± 3.14%
- viability of PBM cells relative to control (PBM cells; 2 h incubation, 25 µM): 102.46 ± 3.1%
- viability of PBM cells relative to control (PBM cells; 2 h incubation, 50 µM): 102.7 ± 2.19%
- viability of PBM cells relative to control (PBM cells; 2 h incubation, 100 µM): 104.68 ± 1.6%
- viability of PBM cells relative to control (PBM cells; 2 h incubation, 250 µM): 104.85 ± 1.37%
- IC50 (PBM cells; 24 h incubation): 61.4 µM
- viability of PBM cells relative to control (PBM cells; 24 h incubation, 0.5 µM): 101.47 ± 3.95%
- viability of PBM cells relative to control (PBM cells; 24 h incubation, 1 µM): 98.54 ± 1.78%
- viability of PBM cells relative to control (PBM cells; 24 h incubation, 2.5 µM): 101.97 ± 3.08%
- viability of PBM cells relative to control (PBM cells; 24 h incubation, 5 µM): 102.32 ± 1.76%
- viability of PBM cells relative to control (PBM cells; 24 h incubation, 10 µM): 88.22 ± 1.4%
- viability of PBM cells relative to control (PBM cells; 24 h incubation, 25 µM): 64.32 ± 0.17%
- viability of PBM cells relative to control (PBM cells; 24 h incubation, 50 µM): 55.37 ± 0.71%
- viability of PBM cells relative to control (PBM cells; 24 h incubation, 100 µM): 38.14 ± 0.33%
- viability of PBM cells relative to control (PBM cells; 24 h incubation, 250 µM): 32.79 ± 1.16%
